The test has as its target human STAT6 (Homo sapiens (Human), UniProt P42226). The test is described as follows: Surface plasmon resonance assay (Biacore 8K, binding to immobilized STAT6). Particulars: human STAT6 aa122-658, N-terminal His-tag, CM5 chip, 25° C.; geometric mean; read-out: STAT6 SPR Kd. As for the experimental part:
Biacore instruments from the 8K-series (Cytiva) were used, and measurements were performed at 25° C. Human STAT6 (truncated, aa122-658, with N-terminal His-tag, expressed in insect cells) was immobilized in the active flow cells on a CM5 chip using amine-coupling (default settings) at 10 μg/ml in 10 mM acetate buffer pH 5.5, at a contact time of 120-420 sec. and a flow rate of 10 μl/min. Reference flow cells were deactivated using blank immobilization. PBS-P+ (Cytiva) supplemented with 2% DMSO was used as running buffer, and solvent correction was applied. Compounds were tested by multi-cycle kinetics injections using a contact time of 60 sec., dissociation time of up to 300 sec., and a flow rate of 30 μl/min.
Solvent-corrected, reference-subtracted and blank-corrected data was processed and binding isotherms were fitted according to a single report point from each sensorgram (Standard: Late binding (5 sec. before injection end); alternative: Earlier report point according to binding profile). Data fitting was done both with unfixed Rmax and with Rmax fixed to the theoretical value* assuming 1:1 binding to allow processing of data from both weak and strong binders as well as to evaluate binding stoichiometry.
Positive controls were run at the beginning, during, and at the end of the screen to evaluate surface activity.
For orientation: In SPR one partner is held on a chip, and binding of the other changes the refractive index at the surface.
human STAT6, sequence (P42226 122-658): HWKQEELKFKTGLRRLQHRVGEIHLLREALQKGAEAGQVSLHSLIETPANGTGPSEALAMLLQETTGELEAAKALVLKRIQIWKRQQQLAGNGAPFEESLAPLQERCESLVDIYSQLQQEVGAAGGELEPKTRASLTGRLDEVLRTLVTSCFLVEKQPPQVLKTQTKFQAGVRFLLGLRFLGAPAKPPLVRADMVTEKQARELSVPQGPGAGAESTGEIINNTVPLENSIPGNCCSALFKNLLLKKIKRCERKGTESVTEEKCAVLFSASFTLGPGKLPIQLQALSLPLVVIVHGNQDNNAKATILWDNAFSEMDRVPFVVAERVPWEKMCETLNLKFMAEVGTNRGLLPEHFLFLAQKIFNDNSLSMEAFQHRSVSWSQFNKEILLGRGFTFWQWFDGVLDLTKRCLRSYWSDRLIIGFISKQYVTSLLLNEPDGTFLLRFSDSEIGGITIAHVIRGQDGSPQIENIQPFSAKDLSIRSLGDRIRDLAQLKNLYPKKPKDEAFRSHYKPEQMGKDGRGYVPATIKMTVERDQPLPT
Broadly, the Kd is the constant that tells how readily two partners part at equilibrium. For the compound `Cc1cc(C(=O)N(C)C)ccc1C1CCN([C@@H](C)c2cc3c(-c4ccc(N)cn4)ccnc3n2C)CC1` [Example 1af17, (S)-4-(1-(1-(4-(5-aminopyridin-2-yl)-1-methyl-1H-pyrrolo[2,3-b]pyridin-2-yl)ethyl)piperidin-4-yl)-N,N,3-trimethylbenzamide], the Kd was 6400 nM.

Turning to `C[C@@H](c1cc2c(-c3ccc(N)cn3)ccnc2n1C)N1CC=C(c2ccc(C(=O)N(C)C)cc2)CC1` [Example 1af19, (S)-4-(1-(1-(4-(5-Aminopyridin-2-yl)-1-methyl-1H-pyrrolo[2,3-b]pyridin-2-yl)ethyl)-1,2,3,6-tetrahydropyridin-4-yl)-N,N-dimethylbenzamide], the Kd is 2360 nM.

`C[C@@H](c1cc2c(-c3ccc(N)nc3C#N)ccnc2n1C)N1CC=C(c2ccc(C(=O)N(C)C)cc2)CC1` [Example 1af21, (S)-4-(1-(1-(4-(6-amino-2-cyanopyridin-3-yl)-1-methyl-1H-pyrrolo[2,3-b]pyridin-2-yl)ethyl)-1,2,3,6-tetrahydropyridin-4-yl)-N,N-dimethylbenzamide]: the Kd was determined as 8660 nM.

`C[C@H](c1cc2c(-c3ccc(N)nc3C#N)ccnc2n1C)N1CC=C(c2ccc(C(=O)N(C)C)cc2)CC1` [Example 1af23, (R)-4-(1-(1-(4-(6-amino-2-cyanopyridin-3-yl)-1-methyl-1H-pyrrolo[2,3-b]pyridin-2-yl)ethyl)-1,2,3,6-tetrahydropyridin-4-yl)-N,N-dimethylbenzamide]: the Kd stood at 45.2 nM.

`[2H]C([2H])([2H])N(C(=O)c1ccc(C2=CCN([C@@H](C)c3cc4c(-c5ccc(N)nc5C#N)ccnc4n3C)CC2)c(C)c1)C([2H])([2H])[2H]` [Example 1af25, (S)-4-(1-(1-(4-(6-amino-2-cyanopyridin-3-yl)-1-methyl-1H-pyrrolo[2,3-b]pyridin-2-yl)ethyl)-1,2,3,6-tetrahydropyridin-4-yl)-3-methyl-N,N-bis(methyl-d3)benzamide]: the Kd came to 361 nM.

Regarding `Cc1cc(C(=O)N(C)C)ccc1C1CCN([C@@H](C)c2cc3c(-c4ccc(N)nc4C#N)ccnc3n2C)CC1` [Example 1af27, (S)-4-(1-(1-(4-(6-Amino-2-cyanopyridin-3-yl)-1-methyl-1H-pyrrolo[2,3-b]pyridin-2-yl)ethyl)piperidin-4-yl)-N,N,3-trimethylbenzamide], the Kd is 66.5 nM.

As for `Cc1cc(C(=O)N(C)C)ccc1C1CCN([C@H](C)c2cc3c(-c4ccc(N)nc4C#N)ccnc3n2C)CC1` [Example 1af28, (R)-4-(1-(1-(4-(6-amino-2-cyanopyridin-3-yl)-1-methyl-1H-pyrrolo[2,3-b]pyridin-2-yl)ethyl)piperidin-4-yl)-N,N,3-trimethylbenzamide], the equilibrium dissociation constant (Kd) is 5310 nM.

In the case of `[2H]C([2H])([2H])N(C(=O)c1ccc(C2CCN([C@@H](C)c3cc4c(-c5ccc(N)nc5C#N)ccnc4n3C)CC2)cc1)C([2H])([2H])[2H]` [Example 1af29, (S)-4-(1-(1-(4-(6-Amino-2-cyanopyridin-3-yl)-1-methyl-1H-pyrrolo[2,3-b]pyridin-2-yl)ethyl)-piperidin-4-yl)-N,N-bis(methyl-d3)benzamide], the Kd is 645 nM.

As for `[2H]C([2H])([2H])N(C(=O)c1ccc(C2CCN([C@H](C)c3cc4c(-c5ccc(N)nc5C#N)ccnc4n3C)CC2)cc1)C([2H])([2H])[2H]` [Example 1af30, (R)-4-(1-(1-(4-(6-amino-2-cyanopyridin-3-yl)-1-methyl-1H-pyrrolo[2,3-b]pyridin-2-yl)ethyl)piperidin-4-yl)-N,N-bis(methyl-d3)benzamide], the Kd worked out at 24.1 nM.

On to `[2H]C([2H])([2H])N(C(=O)c1ccc(C2=CCN([C@@H](C)c3cc4c(-c5ccc(N)cn5)ccnc4n3C)CC2)c(C)c1)C([2H])([2H])[2H]` [Example 1af31, (S)-4-(1-(1-(4-(5-aminopyridin-2-yl)-1-methyl-1H-pyrrolo[2,3-b]pyridin-2-yl)ethyl)-1,2,3,6-tetrahydropyridin-4-yl)-3-methyl-N,N-bis(methyl-d3)benzamide], for which the Kd was 169 nM.

For the compound `Cc1cc(C(=O)N(C)C)ccc1C1=CCN([C@@H](C)c2cc3c(-c4ccc(N)cn4)ccnc3n2C)CC1` [Example 1af32, (S)-4-(1-(1-(4-(5-Aminopyridin-2-yl)-1-methyl-1H-pyrrolo[2,3-b]pyridin-2-yl)ethyl)-1,2,3,6-tetrahydropyridin-4-yl)-N,N,3-trimethylbenzamide], the Kd stood at 286 nM.

In the case of `[2H]C([2H])([2H])N(C(=O)c1ccc(C2=CCN([C@H](C)c3cc4c(-c5ccc(N)cn5)ccnc4n3C)CC2)c(C)c1)C([2H])([2H])[2H]` [Example 1af33, (R)-4-(1-(1-(4-(5-aminopyridin-2-yl)-1-methyl-1H-pyrrolo[2,3-b]pyridin-2-yl)ethyl)-1,2,3,6-tetrahydropyridin-4-yl)-3-methyl-N,N-bis(methyl-d3)benzamide], the Kd came out at 15.4 nM.

With `Cc1cc(C(=O)N(C)C)ccc1C1=CCN([C@H](C)c2cc3c(-c4ccc(N)cn4)ccnc3n2C)CC1` [Example 1af34, (R)-4-(1-(1-(4-(5-aminopyridin-2-yl)-1-methyl-1H-pyrrolo[2,3-b]pyridin-2-yl)ethyl)-1,2,3,6-tetrahydropyridin-4-yl)-N,N,3-trimethylbenzamide], the Kd was 18.6 nM.

`[2H]C([2H])([2H])N(C(=O)c1ccc(C2CCN([C@@H](C)c3cc4c(-c5ccc(N)cn5)ccnc4n3C)CC2)cc1)C([2H])([2H])[2H]` [Example 1af35, (S)-4-(1-(1-(4-(5-Aminopyridin-2-yl)-1-methyl-1H-pyrrolo[2,3-b]pyridin-2-yl)-ethyl)piperidin-4-yl)-N,N-bis(methyl-d3)benzamide]: the Kd was found to be 605 nM.

As for `[2H]C([2H])([2H])N(C(=O)c1ccc(C2CCN([C@H](C)c3cc4c(-c5ccc(N)nc5C#N)ccnc4n3C)CC2)c(C)c1)C([2H])([2H])[2H]` [Example 1af38, (R)-4-(1-(1-(4-(6-amino-2-cyanopyridin-3-yl)-1-methyl-1H-pyrrolo[2,3-b]pyridin-2-yl)ethyl)-piperidin-4-yl)-3-methyl-N,N-bis(methyl-d3)benzamide], the Kd was determined as 5270 nM.

For the compound `[2H]C([2H])([2H])N(C(=O)c1ccc(C2CCN([C@@H](C)c3cc4c(-c5ccc(N)cn5)ccnc4n3C)CC2)c(C)c1)C([2H])([2H])[2H]` [Example 1af41, (S)-4-(1-(1-(4-(5-Aminopyridin-2-yl)-1-methyl-1H-pyrrolo[2,3-b]pyridin-2-yl)ethyl)-piperidin-4-yl)-3-methyl-N,N-bis(methyl-d3)benzamide], the Kd worked out at 3300 nM.

With `[2H]C([2H])([2H])N(C(=O)c1ccc(C2=CCN([C@@H](C)c3cc4c(-c5ccc(N)cn5)ccnc4n3C)CC2)cc1)C([2H])([2H])[2H]` [Example 1af43, (S)-4-(1-(1-(4-(5-Aminopyridin-2-yl)-1-methyl-1H-pyrrolo[2,3-b]pyridin-2-yl)ethyl)-1,2,3,6-tetrahydropyridin-4-yl)-N,N-bis(methyl-d3)benzamide], the Kd was 2950 nM.

Take `CNC(=O)c1ccc(-c2ccnc3c2cc(CN2CCN(c4ccc(C(=O)N(C)C)cc4)CC2)n3C)cc1` [Example 1j6, 4-[2-[[4-[4-(Dimethylcarbamoyl)phenyl]piperazin-1-yl]methyl]-1-methyl-pyrrolo[2,3-b]pyridin-4-yl]-N-methyl-benzamide]: the dissociation constant (Kd) is 37200 nM.

Turning to `CNC(=O)c1ccc(-c2ccnc3c2cc(CN2CCC(c4ccc(C(=O)N(C)C)cc4)CC2)n3C)cc1` [Example 1j7, 4-[2-[[4-[4-(Dimethylcarbamoyl)phenyl]-1-piperidyl]methyl]-1-methyl-pyrrolo[2,3-b]pyridin-4-yl]-N-methyl-benzamide], the Kd turned out to be 3450 nM.

With `CN(C)C(=O)c1ccc(C2CCN(Cc3cc4c(-c5ccc(N)c(C(=O)C(=O)O)c5)ccnc4n3C)CC2)cc1` [Example 1j13, 2-(2-Amino-5-(2-((4-(4-(dimethylcarbamoyl)phenyl)piperidin-1-yl)methyl)-1-methyl-1H-pyrrolo[2,3-b]pyridin-4-yl)phenyl)-2-oxoacetic acid], the Kd amounted to 12.8 nM.

`CC(=O)Nc1ccc(-c2ccnc3c2cc(CN2CCC(c4ccc(C(=O)N(C)C)cc4)CC2)n3C)cn1` [Example 1k2, 4-[1-[[4-(6-Acetamido-3-pyridyl)-1-methyl-pyrrolo[2,3-b]pyridin-2-yl]methyl]-4-piperidyl]-N,N-dimethyl-benzamide]: the dissociation constant Kd amounted to 64 nM.

In the case of `CN(C)C(=O)c1ccc(C2CCN(Cc3cc4c(-c5cnc(N)cn5)ccnc4n3C)CC2)cc1` [Example 1k8, 4-[1-[[4-(5-Aminopyrazin-2-yl)-1-methyl-pyrrolo[2,3-b]pyridin-2-yl]methyl]-4-piperidyl]-N,N-dimethyl-benzamide], the Kd stood at 457 nM.

For the compound `CN(C)C(=O)c1ccc(C2CCN(Cc3cc4c(-c5cnc(N)c(C(=O)O)c5)ccnc4n3C)CC2)cc1` [Example 1k9, 2-Amino-5-[2-[[4-[4-(dimethylcarbamoyl)phenyl]-1-piperidyl]methyl]-1-methyl-pyrrolo[2,3-b]pyridin-4-yl]pyridine-3-carboxylic acid], the dissociation constant Kd amounted to 144 nM.

`COC(=O)c1cc(-c2ccnc3c2cc(CN2CCC(c4ccc(C(=O)N(C)C)cc4)CC2)n3C)cnc1N` [Example 1k10, Methyl 2-amino-5-[2-[[4-[4-(dimethylcarbamoyl)phenyl]-1-piperidyl]methyl]-1-methyl-pyrrolo[2,3-b]pyridin-4-yl]pyridine-3-carboxylate]: the Kd was 2630 nM.

Values taken from patent US20250340551A1, “SMALL MOLECULE MODULATORS OF STAT6” (Gilead Sciences, Inc., priority 2024, published 2025).
